Laboratory results reported in US12024508B2 (priority 2018, dated 2024).
pIC50: −log10 of the molar value.

Key:
[1] = Toxicity (cell number) in Hep2 cells; settings: human
[2] = tested on: RSV; experiment: Antiviral activity, Hep2 cells with RSV; type: cell-based; settings: for Selectivity index: CC50/CI50; for pIC50: human respiratory syncytial virus, HEp-2, MOI 0.2, fixation at 72 hours, read-out: CI50 (the source's name)
[3] = tested on: VACV-ANCHOR; experiment: microbe, parasite or virus in culture; type: cell-based, Vaccinia virus; settings: for Selectivity index: HeLa/VacV, CC50/CI50; for pIC50: Orthopoxvirus vaccinia, HeLa, 48 h, read-out: CI50
[4] = Toxicity (cell number) in MRC5 cells; settings: human
[5] = tested on: hCMV-ANCHOR; experiment: Antiviral activity, MRC5 cells with hCMV-ANCHOR; type: cell-based; settings: for Selectivity index: CC50/CI50; for pIC50: Human betaherpesvirus 5, 144 h, MOI 1, fixation at 6 days, read-out: CI50 (the source's name)
[6] = Toxicity (cell number) in HeLa cells; settings: human
[7] = tested on: Shiga toxin (Stx-1 and/or Stx-2); type: cell-based, E. coli
[8] = tested on: Myxomavirus T1-ANCHOR; experiment: Antiviral activity, RK13 cells with Myxomavirus T1-ANCHOR; type: cell-based; settings: for pIC50: RK-13, 144 h, RK13/MyxV T1, MOI 0.05, fixation at 6 days, read-out: CI50 (the source's name); for Selectivity index: RK13/MyxV T1, CC50/CI50
[9] = Toxicity (cell number) in RK13 cells; settings: rabbit

| Structure (SMILES) | CC50 at 72 h [1] [nM] | Selectivity index [2] | pIC50 [2] | Selectivity index [3] | pIC50 [3] | CC50 at 72 h [4] [nM] | Selectivity index [5] | pIC50 [5] | CC50 at 72 h [6] [nM] | pIC50 [7] | pIC50 [8] | CC50 at 72 h [9] [nM] | Selectivity index [8] |
| --- | --- | --- | --- | --- | --- | --- | --- | --- | --- | --- | --- | --- | --- |
| Cc1nc(-c2ccc(C3N(C)c4ccc(F)cc4C(=O)N3c3ccccc3O)s2)cs1 (stereo not shown) [Compound 2] | 37600 | 1,880 | 7.70 | 8,947 | 8.44 | 21000 | 21,000 | > 9.00 | 32300 | 7.70 | 7.85 |  |  |
| Cc1nc(-c2ccc(C3N(C)c4ccccc4C(=O)N3c3ccccc3N)s2)cs1 (stereo not shown) [Compound 4] |  |  |  |  |  |  |  |  |  | 7.10 |  |  |  |
| Cc1nc(-c2ccc(C3N(C)c4ccc(F)cc4C(=O)N3c3ccccc3N)s2)cs1 (stereo not shown) [Compound 1] | > 50000 |  |  | 47,619 | 8.98 | 21500 | 21,500 | > 9.00 | > 50000 | 7.85 | 8.84 | 7460 | 5,181 |
| Cc1nc(-c2ccc(C3N(C)c4ccc(F)cc4C(=O)N3c3ccc(O)cc3)s2)cs1 (stereo not shown) [Compound 6] | 25600 | 12 | 5.66 | 32 | 6.20 | 16700 | 59 | 6.55 | 20400 | 6.32 | 5.24 | 12900 | 2 |
| Cc1nc(-c2ccc(C3N(C)c4ccc(F)cc4C(=O)N3c3ccccc3)s2)cs1 (stereo not shown) [Retro-2.1] | > 50000 | 309 | 6.79 | 1,323 | 7.42 | > 50000 | 4,310 | 7.94 | > 50000 | 7.00 | 7.13 | 3350 | 45 |
| Cc1nc(-c2ccc(C3N(C)c4ccc(F)cc4C(=O)N3c3ccccc3S(N)(=O)=O)s2)cs1 (stereo not shown) [Compound 5] |  |  |  |  |  |  |  |  |  | 7.46 |  |  |  |
| Cc1nc(-c2ccc(C3N(C)c4ccc(F)cc4C(=O)N3c3cccc(O)c3O)s2)cs1 (stereo not shown) [Compound 7] |  |  |  |  |  |  |  |  |  | 7.39 |  |  |  |
| Cc1nc(-c2ccc(C3N(C)c4ccc(F)cc4C(=O)N3c3cccc(O)c3)s2)cs1 (stereo not shown) [Compound 3] |  |  |  |  |  |  |  |  |  | 7.26 |  |  |  |
